The text below walks through data of patent publication US4510140A, “Therapeutically effective ω-(4-(2-pyridyl)-piperazino)-alkanoylanilides” (priority 1981, dated 1985).

Like-named read-outs stand apart in the source and are kept apart here.

A short description of data set [1]: LD50 determined in the mouse (C. S. Weil method). Set-up: unit not given here. Conditions: in vivo. An excerpt:
Accordingly, the present invention also features pharmaceutical compositions comprising a pharmaceutically effective amount of a compound having the structural formula (I) as above-defined, or a pharmaceutically acceptable salt thereof, in admixture with conventional pharmaceutically acceptable dileunt or carrier. Suitable such carriers and unit dosage amounts will be apparent to those skilled in this art. Compare, for example, Remington's Pharmaceutical Sciences, 4th Edition (1970). The LD50 of the alkanoylanilides according to the invention was determined in the mouse, both in C. S. Weil, following the method describedBiometrics, 8, 249 (1952). The results obtained were as follows, with the designating for the active compounds corresponding to those set forth in the following specific examples: […]

The test system of data set [2] is bronchospasm induced by histamine. The experiment in a line: Antibronchospastic activity (Konzett and Rossler): inhibition of bronchospasm induced in anaesthetized guinea-pig by histamine. The class given is in vivo. As to conditions: Cavia porcellus, iv, 1 min, read-out: ED75 (inhibition of histamine-induced bronchospasm). Here is the method: The antibronchospastic activity was determined according to the method of Konzett and Rossler [Arch. exp. Path. Pharmakol., 195, 71 (1940)], determining the inhibition of bronchospasm induced in anaesthetized guinea-pig by histamine. For this purpose, the bronchospasms were induced by administering intravenously to the animals 0.5-2.5 μg/Kg of hystamine. Inhibition (ED75) was determined one minute after the injection of the drug under test, and the results obtained are reported in the following Table III: […]

For data set [3], the system named is passive cutaneous anaphylaxis. Nature of the data set: PCA Test: passive cutaneous anaphylaxis induced in the rat with homologous antibodies (Goose and Blair); inhibition of spot areas. It is filed as in vivo. As to conditions: Rattus norvegicus, read-out: PCA Test - ED50 (inhibition of spot areas). Here is the method:
In order to evaluate the antianaphylactic activity of the subject novel compounds, the method of Goose and Blair was followed, in which passive cutaneous anaphylaxis was induced in the rat with homologous antibodies [Immunology, 16, 749 (1969)]. Female albino rats were immunized intramuscularly with egg albumin and intraperitoneally with Hemophylus pertussis vaccine.
Twelve days after treatment, the animals were bled and the sera thus obtained were injected intradermally into another group of rats. Twenty-four hours later, the animals were challenged with an i.v. solution of ovoalbumin and Evans blue dye, and sacrificed after 30 minutes. The test drugs were administered by different routes of administration and at different times before the challenge. Inhibition of spot areas (ED50) was determined.

Usually ED50 stands for the dose at which the effect has come halfway, by size or by number of responders. For `CC(=O)c1cccc(NC(=O)CCN2CCN(c3ccccn3)CC2)c1` [compound 40], the LD50 in data set [1] (ip) was 0.68; in data set [1] (po, os), 1.11. Besides, in data set [2], the ED75 turned out to be 0.2 µmol/kg. Moreover, the ED50 in data set [3] (po) came out at 73 µmol/kg.

With `CCOC(=O)c1ccc(NC(=O)CCN2CCN(c3ccccn3)CC2)cc1` [compound 41], the LD50 in data set [1] (ip) stood at 0.66; in data set [1] (po, os), 0.92. The ED75 in data set [2] was found to be 0.17 µmol/kg. Besides, the ED50 is 220 µmol/kg in data set [3] (ip) and 28 µmol/kg in data set [3] (po).
